Data from US20120219623A1, “PHARMACEUTICAL COMPOSITIONS COMPRISING BI-1356 AND METFORMIN” (BOEHRINGER INGELHEIM INTERNATIONAL GMBH, priority 2009, published 2012).

How the values were obtained:
[1] = system: type 2 diabetes patients with insufficient glycemic control on metformin plus sulfonylurea; experiment: 24-wk placebo-controlled study of linagliptin add-on to metformin plus sulfonylurea
[2] = system: inadequately controlled, metformin-treated type 2 diabetic patients; experiment: 12-week randomized, double-blind study of BI 1356 add-on to metformin vs placebo or open label glimepiride; settings: 12 weeks
[3] = therapeutic oral dose levels
[4] = system: type 2 diabetes mellitus patients with insufficient glycemic control on metformin; settings: human, in vivo, 24 weeks

CC#CCn1c(N2CCC[C@@H](N)C2)nc2c1c(=O)n(Cc1nc(C)c3ccccc3n1)c(=O)n2C [BI 1356]
insulin resistance (HOMA-IR) ([1]; LI vs. PBO, FAS, P<0.05): improve | β-cell function (HOMA-% B) ([1]; LI vs. PBO, FAS, P<0.05): improve | adjusted mean difference between LI and PBO for the change in fasting plasma glucose (FPG) from baseline ([1]; wk 24, full analysis set, add-on to MET plus SU): -13 mg/dL | drug-related hypoglycaemia [2]: no case of hypoglycaemia | excreted via the kidney [3]: < 7 % of the administered oral dose | route of excretion [3]: primarily excreted unchanged via the bile | hypoglycemia, proportion of patients [4]: 0.6% | proportion of patients reporting at least one adverse event (AE) [4]: 52.8%
